Laboratory results: ChEMBL document CHEMBL6074698, “Heteroaryl Glutarimides and Dihydrouracils as Cereblon Ligand Scaffolds for Molecular Glue Degrader Discovery” (ACS Med Chem Lett, 2024)

What was measured:
in vitro = conditions: human
physchem [1] = conditions: PBS, pH 7.4
physchem [2] = conditions: DMEM buffer, pH 7.4

half-life at 24 h (in vitro; MV4-11 cells)	half-life at 48 h (physchem [2])	half-life at 24 h (in vitro; mv4-11)	SMILES	logD (physchem [1])
3.3 h	–	–	O=C1CCC(N2C(=O)c3ccccc3C2=O)C(=O)N1 (stereo not drawn) [THALIDOMIDE]	0.7
–	–	–	O=C1CCC(c2cccc3cc[nH]c23)C(=O)N1 (stereo not drawn)	1.4
–	–	–	O=C1CCC(c2ccc3[nH]ncc3c2)C(=O)N1 (stereo not drawn)	0.3
12 h	0.9 h	–	Nc1cccc2c1CN(C1CCC(=O)NC1=O)C2=O (stereo not drawn) [LENALIDOMIDE]	–
–	0.4 h	12 h	Nc1cccc2c1C(=O)N(C1CCC(=O)NC1=O)C2=O (stereo not drawn) [POMALIDOMIDE]	1.3
–	–	–	O=C1CCC(c2ccnc3[nH]ncc23)C(=O)N1 (stereo not drawn)	-0.3
–	–	–	O=C1CCN(c2ccccc2)C(=O)N1	0.3

SMILES	half-life at 24 h (in vitro; MV4-11 cells)	half-life at 48 h (physchem [2])	half-life at 24 h (in vitro; mv4-11)	logD (physchem [1])
O=C1CCC(c2ccccc2)C(=O)N1 (stereo not drawn)	> 24 h	–	–	0.6
